Values joined by “and” are separate entries in the source; they are usually repeats but may differ in a detail not shown here. Equal values may be shown once.
Key:
PKNB(M.tuberculosis) = target: T1, PKNB(M.tuberculosis) (Mycobacterium tuberculosis, UniProt P9WI81); experiment: KINOMEscan; assay type: binding; details: read-out: % Ctrl
T1 construct: purchased DiscoveRx KINOMEscan

FLT3(D835Y) = target: T2, FLT3(D835Y) (Homo sapiens, UniProt P36888, D835Y); experiment: KINOMEscan; assay type: binding; details: read-out: % Ctrl
T2 construct: purchased DiscoveRx KINOMEscan

PIK3CA(Q546K) = target: T3, PIK3CA(Q546K) (Homo sapiens, UniProt P42336, Q546K); experiment: KINOMEscan; assay type: binding; details: read-out: % Ctrl
T3 construct: purchased DiscoveRx KINOMEscan
T3 sequence (P42336 whole entry Q546K): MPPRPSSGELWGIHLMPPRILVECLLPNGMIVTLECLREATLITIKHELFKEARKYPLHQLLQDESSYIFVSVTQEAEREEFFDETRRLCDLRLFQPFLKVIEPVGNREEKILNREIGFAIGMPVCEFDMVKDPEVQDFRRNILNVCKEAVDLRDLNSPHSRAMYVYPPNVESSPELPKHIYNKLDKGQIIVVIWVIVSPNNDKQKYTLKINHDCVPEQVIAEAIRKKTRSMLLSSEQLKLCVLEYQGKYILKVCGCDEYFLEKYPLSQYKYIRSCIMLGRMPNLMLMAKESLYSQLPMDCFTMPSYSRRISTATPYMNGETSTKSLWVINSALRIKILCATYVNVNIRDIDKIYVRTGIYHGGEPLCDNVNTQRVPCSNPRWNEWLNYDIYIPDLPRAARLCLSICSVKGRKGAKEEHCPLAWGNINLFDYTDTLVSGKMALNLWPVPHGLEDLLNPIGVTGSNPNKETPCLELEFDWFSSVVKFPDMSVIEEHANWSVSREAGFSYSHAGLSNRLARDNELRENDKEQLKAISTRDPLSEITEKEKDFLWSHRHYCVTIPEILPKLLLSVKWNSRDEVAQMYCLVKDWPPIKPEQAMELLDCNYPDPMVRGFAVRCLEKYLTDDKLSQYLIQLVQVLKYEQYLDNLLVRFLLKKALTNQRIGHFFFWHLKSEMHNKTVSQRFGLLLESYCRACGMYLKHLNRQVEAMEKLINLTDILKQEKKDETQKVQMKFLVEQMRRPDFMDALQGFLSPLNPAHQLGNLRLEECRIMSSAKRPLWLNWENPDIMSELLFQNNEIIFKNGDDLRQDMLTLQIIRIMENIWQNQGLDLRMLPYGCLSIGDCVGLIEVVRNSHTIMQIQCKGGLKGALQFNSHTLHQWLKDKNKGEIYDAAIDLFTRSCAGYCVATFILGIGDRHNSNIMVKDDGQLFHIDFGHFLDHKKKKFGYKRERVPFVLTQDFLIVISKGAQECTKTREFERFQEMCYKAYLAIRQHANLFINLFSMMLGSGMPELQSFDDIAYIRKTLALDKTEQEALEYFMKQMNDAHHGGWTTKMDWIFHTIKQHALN

[1] = target: T4, EGFR(L747-E749del, A750P) (Homo sapiens, UniProt P00533, A750P/DEL747-749); experiment: KINOMEscan; assay type: binding; details: read-out: % Ctrl
T4 construct: purchased DiscoveRx KINOMEscan
T4 sequence (P00533 with tags, fused parts or gaps DEL747-749/A750P limits assumed): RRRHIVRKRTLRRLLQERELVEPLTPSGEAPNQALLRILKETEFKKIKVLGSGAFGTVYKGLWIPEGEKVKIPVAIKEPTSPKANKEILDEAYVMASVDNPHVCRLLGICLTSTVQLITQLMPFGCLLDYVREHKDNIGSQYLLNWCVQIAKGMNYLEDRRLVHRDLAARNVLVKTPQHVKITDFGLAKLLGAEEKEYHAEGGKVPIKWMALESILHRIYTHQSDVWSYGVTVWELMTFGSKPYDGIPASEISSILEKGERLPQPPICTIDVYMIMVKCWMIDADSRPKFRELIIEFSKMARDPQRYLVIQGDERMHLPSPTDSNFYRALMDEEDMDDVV

RET(M918T) = target: T5, RET(M918T) (Homo sapiens, UniProt P07949, M918T); experiment: KINOMEscan; assay type: binding; details: read-out: % Ctrl
T5 construct: purchased DiscoveRx KINOMEscan
T5 sequence (P07949 29-1114 M918T): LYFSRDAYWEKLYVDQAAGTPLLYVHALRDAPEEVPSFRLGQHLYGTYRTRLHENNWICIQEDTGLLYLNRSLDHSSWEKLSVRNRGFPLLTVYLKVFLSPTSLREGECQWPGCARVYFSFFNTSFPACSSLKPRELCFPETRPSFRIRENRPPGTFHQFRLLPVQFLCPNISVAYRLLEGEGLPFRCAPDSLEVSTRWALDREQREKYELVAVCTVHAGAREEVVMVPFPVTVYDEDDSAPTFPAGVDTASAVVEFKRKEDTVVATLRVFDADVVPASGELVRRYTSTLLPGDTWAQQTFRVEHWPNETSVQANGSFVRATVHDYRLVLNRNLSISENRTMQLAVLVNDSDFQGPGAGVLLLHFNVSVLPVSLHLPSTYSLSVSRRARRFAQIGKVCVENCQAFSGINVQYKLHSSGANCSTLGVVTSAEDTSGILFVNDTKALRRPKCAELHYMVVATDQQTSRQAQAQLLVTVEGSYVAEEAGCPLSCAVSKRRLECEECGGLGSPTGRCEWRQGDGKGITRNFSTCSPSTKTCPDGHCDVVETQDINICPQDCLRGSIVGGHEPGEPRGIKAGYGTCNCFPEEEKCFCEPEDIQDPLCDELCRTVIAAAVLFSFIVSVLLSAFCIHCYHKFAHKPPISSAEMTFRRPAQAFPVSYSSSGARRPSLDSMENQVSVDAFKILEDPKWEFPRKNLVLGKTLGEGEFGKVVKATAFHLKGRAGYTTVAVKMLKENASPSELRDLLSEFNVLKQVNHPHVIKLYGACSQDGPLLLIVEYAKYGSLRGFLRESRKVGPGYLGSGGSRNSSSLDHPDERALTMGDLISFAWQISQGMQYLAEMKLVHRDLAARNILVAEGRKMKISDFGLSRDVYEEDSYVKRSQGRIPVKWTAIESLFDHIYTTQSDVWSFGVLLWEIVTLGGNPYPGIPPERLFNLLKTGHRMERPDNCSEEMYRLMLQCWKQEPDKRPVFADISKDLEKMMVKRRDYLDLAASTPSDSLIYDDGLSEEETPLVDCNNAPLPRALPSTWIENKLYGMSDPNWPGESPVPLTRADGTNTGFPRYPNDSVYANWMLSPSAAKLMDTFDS

caspases 8, 9 and 3/7 = experiment: Caspases activity assay in H460TaxR cells; assay type: cell-based, human; details: 2 μM, 6, 12 and 24 h
Description: The activities of caspases 8, 9, and 3/7 in H460TaxR and H460 cells were examined via a fluorescence-based assay using Caspase-Glo 8, Caspase-Glo 9 Assay kits and Apo-ONE Homogeneous Caspase-3/7 Assay Kit (Promega, Madison, WI, USA). Cells (1 × 10^6 cells in 10 ml medium) were seeded in 10-cm dishes. After 24 h, the cells were treated with TBPT (2 μM) or DMSO for 6, 12 and 24 h. Then, the cells were washed in PBS and collected. Cell lysates were prepared conventionally in RIPA lysis buffer. Protein concentrations were determined using the BCA protein assay. Equal amounts (10 μg) of total protein of samples were added to 96-well culture plates containing 100 μl caspases 8, 9 and 3/7 activity working solution. After the samples were incubated for 1 h at RT, the fluorescence of each well was determined at 499 nm with an emission wavelength of 521 nm using a multimode plate reader (Victor X2, Perkin Elmer, Boston, MA, USA). The fluorescence intensities are proportional to the activities of caspases 8, 9 and 3/7.

plasma protein binding = assay type: in vitro ADME
Description: As in vivo investigations are generally time consuming and expensive, it is advantageous to eliminate those compounds that are not suitable for animal experiments. One of the necessary steps is to screen the initial hits using assays testing their possible behaviors in vivo. To evaluate the drug-like properties of TBPT, a panel of in vitro assays was preformed (Table 1). The parallel artificial membrane permeability assay (PAMPA) was used to evaluate the cell permeability of the compounds. Compounds with a Pe >[…] are classified as highly permeable. […] The Caco-2 assay was used to predict the oral absorption values of the compounds in vivo. Compounds with a Caco-2 efflux ratio >2 may be subject to active efflux and should not be developed further. […] The half-life (T1/2) in human liver microsomes is used to predict the metabolism properties of compounds in vivo. […] A very long T1/2 (>24 h) increases the risk of cumulative toxicity and is not desirable. […] T1/2 in plasma indicates the stability of the drug in human blood; the high T1/2 values of these compounds indicated better stability in vivo. Plasma protein binding influences the distribution of drugs into body tissues, and compounds with high plasma protein binding (>99%) are limited in terms of the amount of free compound that are available to act on the targeted tissue. […]

FLT3(K663Q) = target: T6, FLT3(K663Q) (Homo sapiens, UniProt P36888, K663Q); experiment: KINOMEscan; assay type: binding; details: read-out: % Ctrl
T6 construct: purchased DiscoveRx KINOMEscan

PIK3CA(E545A) = target: T7, PIK3CA(E545A) (Homo sapiens, UniProt P42336, E545A); experiment: KINOMEscan; assay type: binding; details: read-out: % Ctrl
T7 construct: purchased DiscoveRx KINOMEscan
T7 sequence (P42336 whole entry E545A): as the sequence (P42336 whole entry Q546K) above, with E545A, K546Q counted along it

[2] = target: T8, ABL1(H396P)-phosphorylated (Homo sapiens, UniProt P00519, H396P); experiment: KINOMEscan; assay type: binding; details: read-out: % Ctrl
T8 construct: purchased DiscoveRx KINOMEscan

mice hippocampus cells = experiment: Cell cycle and apoptosis analysis; details: 2 μM
Description: Cell cycle and apoptosis analyses were performed on a Guava EasyCyte Flow Cytometry System (Millipore, Billerica, MA, USA). Cells were seeded in 6-cm culture plates and treated with 2 μM TBPT or an equal volume of DMSO on the next day for the indicated times. To analyze the intracellular DNA content, cells were harvested, washed twice in PBS and fixed in 70% ethanol at −20 °C overnight. After the cells were washed in PBS, they were stained with Guava cell cycle reagent (Millipore) and analyzed via flow cytometry. For cell apoptosis analysis, the cells were harvested, washed in PBS, stained with PI/Annexin V-FITC reagent (Life Technologies) and analyzed by flow cytometry.
The cell cycle (a) and apoptosis (b) analysis of mice hippocampus cells. The new-born mice hippocampus cells were derived and cultured as previously report (F Lu et al. Cell Death and Disease, 2012). Cells were treated with DMSO or TBPT (2 μM) for the indicated times. After the cells were stained, they were analyzed for cell cycle and apoptosis using flow cytometry.

H460TaxR = experiment: Cell viability assay (sulforhodamine B); assay type: cell-based, human; details: for EC50: Homo sapiens, H460/TaxR
Description: (§1) All biological reagents and solvents were obtained from commercial suppliers and used as recommended. The human NSCLC cell line H460 and P-gp-overexpressing drug-resistant cell line H460TaxR were cultured in RPMI-1640 medium supplemented with 10% fetal bovine serum, 100 units/ml penicillin and […] streptomycin. The NHFB cell line NHFB was cultured in DMEM with the same supplements. All cells were maintained in a 37 °C incubator with 95% humidity and 5% CO2.
(§2) The cell viability was determined using the sulforhodamine B assay.[64] In brief, cells (4000 cells in 100 μl medium) were seeded in 96-well culture plates and incubated for 24 h. The cells were treated with the compounds or with an equal volume (0.1%) of DMSO for 72 h. The cell viability was calculated using the following formula: cell viability=Atreatment/Acontrol. The EC50 values were determined using the Sigma Plot 10.0 software package (Systat Software Inc., San Jose, CA, USA).

H460 = experiment: Cell viability assay (sulforhodamine B); assay type: cell-based, human; details: H460 cells, 72 h
Description: as §1, §2

H460 xenograft = experiment: NSCLC xenograft tumor growth inhibition; assay type: in vivo; details: H460 xenografted mice; TBPT 60 mg/kg i.v., five injections every other day
Description: (§3) (a) The tumor volume was measured every other day. […] (b) Blood biochemical and hematological analyses.

H460TaxR xenograft = experiment: NSCLC xenograft tumor growth inhibition; assay type: in vivo; details: H460TaxR xenografted mice; TBPT 60 mg/kg i.v., five injections every other day
Description: as §3

[3] = target: T9, ABL1(F317I)-phosphorylated (Homo sapiens, UniProt P00519, F317I); experiment: KINOMEscan; assay type: binding; details: read-out: % Ctrl
T9 construct: purchased DiscoveRx KINOMEscan

EGFR(L747-T751del,Sins) = experiment: KINOMEscan; assay type: binding, human

T1 sequence (P9WI81 whole entry): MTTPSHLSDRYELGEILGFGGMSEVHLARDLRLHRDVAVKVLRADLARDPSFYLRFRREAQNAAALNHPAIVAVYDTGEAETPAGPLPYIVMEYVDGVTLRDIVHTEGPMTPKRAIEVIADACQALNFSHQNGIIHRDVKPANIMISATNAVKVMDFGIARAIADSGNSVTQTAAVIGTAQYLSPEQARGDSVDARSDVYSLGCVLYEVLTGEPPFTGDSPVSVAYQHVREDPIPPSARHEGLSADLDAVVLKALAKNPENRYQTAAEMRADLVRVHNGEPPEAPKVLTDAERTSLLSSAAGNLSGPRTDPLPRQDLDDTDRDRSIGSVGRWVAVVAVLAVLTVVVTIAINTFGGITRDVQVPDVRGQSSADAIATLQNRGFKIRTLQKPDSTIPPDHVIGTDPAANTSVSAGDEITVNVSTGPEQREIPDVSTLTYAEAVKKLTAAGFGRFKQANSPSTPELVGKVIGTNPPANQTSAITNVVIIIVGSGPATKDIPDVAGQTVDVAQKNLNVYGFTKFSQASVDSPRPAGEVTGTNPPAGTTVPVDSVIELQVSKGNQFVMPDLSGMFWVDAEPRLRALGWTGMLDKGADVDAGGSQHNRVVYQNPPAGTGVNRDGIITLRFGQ

Compound `Cc1ccc(C2=Nc3cccnc3S(=O)(=O)c3ccccc32)cc1` [TBPT, 6-(p-tolyl)benzo[f] pyrido[2,3-b][1,4] thiazepine 11,11-dioxide] has a remaining binding at 5 µM (PKNB(M.tuberculosis); 5 μM) of 100%, a remaining binding at 10 µM (PKNB(M.tuberculosis); 10 μM) of 85% and a remaining binding at 5 µM (FLT3(D835Y); 5 μM) of 92%. It also gave a remaining binding at 10 µM (FLT3(D835Y); 10 μM) of 100%, a remaining binding at 5 µM (PIK3CA(Q546K); 5 μM) of 100% and a remaining binding at 10 µM (PIK3CA(Q546K); 10 μM) of 94%. For the same compound, the remaining binding at 5 µM ([1]; 5 μM) was 91%, the remaining binding at 10 µM ([1]; 10 μM) was 91% and the remaining binding at 5 µM (RET(M918T); 5 μM) was 99%. The remaining binding at 10 µM (RET(M918T); 10 μM) was 99%, the “activities of caspases 8, 9 and 3/7” value (caspases 8, 9 and 3/7) was “activated caspases 8, 9 and 3/7 in a time-dependent manner” and the fraction unbound (plasma protein binding) was 0.0164. The remaining binding at 5 µM (FLT3(K663Q); 5 μM) was 84%, the remaining binding at 10 µM (FLT3(K663Q); 10 μM) was 94% and the remaining binding at 5 µM (PIK3CA(E545A); 5 μM) was 100%. For the same compound, the remaining binding at 10 µM (PIK3CA(E545A); 10 μM) was 100%, the remaining binding at 5 µM ([2]; 5 μM) was 68% and the remaining binding at 10 µM ([2]; 10 μM) was 92%. For the same compound, the “cell cycle arrest or apoptosis” value (mice hippocampus cells) was “very little cell cycle arrest or apoptosis”, the “Resistance Folds” value (H460TaxR; EC50 in H460TaxR cells divided by EC50 in H460 cells) was 1.3 and the EC50 (H460TaxR; 72 h, H460TaxR cells) was less than 500 nM. It also gave an EC50 (H460TaxR; H460TaxR(+Rev), Reversan (P-gp inhibitor)) of 610 ± 260 nM, an EC50 (H460) of 450 ± 190 nM and an EC50 (H460; Homo sapiens, NCI-H460, 72 h) of less than 500 nM. For the same compound, the “tumor growth inhibition, TGI” value (H460 xenograft) was 62.9% and > 60%, the “tumor growth inhibition, TGI” value (H460TaxR xenograft) was 66.7% and > 60% and the remaining binding at 5 µM ([3]; 5 μM) was 78%. For the same compound, the remaining binding at 10 µM ([3]; 10 μM) was 81%, the “% Ctrl” value (EGFR(L747-T751del,Sins); 5 μM) was 88% and the “% Ctrl” value (EGFR(L747-T751del,Sins); 10 μM) was 98%.
